Measurements reported in BigSolDB 2.1.

Cc1nc2cc(N)ccc2s1
solubility (mole fraction)
Conditions	288.5 K	293.5 K	298.5 K	303.5 K	308.5 K	313.5 K	318.5 K	323.5 K	328.5 K
in ethanol	0.00125	0.00129	0.00156	0.00164	0.00174	0.00194	0.0022	0.00253	0.00284
in water	0.000191	0.000269	0.000311	0.000491	0.000534	0.000745	0.000872	0.000937	0.00113
